Reference: PMC4561856, “Atomic basis for therapeutic activation of neuronal potassium channels” (Nature Communications, 2015)
Positions count from the first letter of the chain named. Where two headings read alike, the source gives them in different places.

Tests used:
[1] = tested on: KCNQ3*[Trp265TAG] rescued with F3-Trp; experiment: Two-electrode voltage clamp of F3-Trp-rescued KCNQ3*[Trp265TAG] channels (nonsense suppression); assay type: cell-based, human; conditions: for drug potency relative to Trp-rescued channels: F3-Trp substitution at Trp265
Description: (§1) KCNQ2 (human) and KCNQ3 (human) channel cDNAs were propagated and manipulated using the pTLN vector (gifts of Dr M. Taglialatela and Dr T. Jentsch). Introduction of point mutations was accomplished using PCR to combine two fragments each of which contained the mutation in an overlapping region of the sequence (‘two-step’ PCR method). To accomplish this, we used standard PCR approaches to amplify a 5′ fragment and a 3′ fragment (using a ‘flanking primer’ paired with a mutagenic primer). These fragments were then mixed along with the ‘flanking primer’ pair for a second round of PCR to combine the overlapping fragments. The resulting fragment was then subcloned into the appropriate parent vector using EcoRI and NotI restriction enzymes, and the sequence was verified by Sanger sequencing approaches (Genewiz). Sequences for the flanking primers and the ‘forward’ mutagenic primers are provided in Supplementary Table 1 for all mutations that were generated (‘reverse’ mutagenic primers are simply the reverse complement). In all experiments involving homomeric expression of KCNQ3 channels (including in vivo nonsense suppression experiments), the Ala315Thr mutation was introduced to enable efficient trafficking of homomeric KCNQ3. […] The plasmid encoding CivSP was kindly provided by Dr Y. Okamura. Complementary RNA was transcribed from the cDNA using the mMessage mMachine Kit (Ambion). Stage V–VI Xenopus laevis oocytes were prepared as previously described and were injected with cRNA alone or cRNA plus synthetic tRNA (for nonsense suppression, described below). Oocyte preparation was carried out using a protocol approved by the University of British Columbia Animal Care Committee, in accordance with the Canadian Council for Animal Care guidelines. We used female Xenopus laevis frogs 100 g or greater in size. After injection, oocytes were incubated for 12–48 h at 18 °C before recording.
Fluorinated Trp derivatives (5-F1-Trp; 7-F1-Trp; 5,7-F2-Trp (F2-Trp) and 5,6,7-F3-Trp (F3-Trp) were purchased from Asis Chem (Watertown, MA) and Sigma-Aldrich (St Louis, MO). The ‘Ind’ Trp variant was synthesized in-house as described previously. Incorporation of unnatural amino acids into ion channel proteins was carried out as described extensively in prior publications. Briefly, unnatural amino acids (aa) were protected with nitroveratryloxycarbonyl and were activated as the cyanomethyl ester, which were then coupled to the dinucleotide pdCpA (GE Healthcare/Dharmacon, Lafayette, CO). This aminoacyl dinucleotide was subsequently ligated to a modified (G73) Tetrahymena thermophile tRNA. […]
(§2) Voltage-clamped potassium currents were recorded in standard Ringers solution (in mM): 116 NaCl, 2 KCl, 1 MgCl2, 0.5 CaCl2, 5 HEPES (pH 7.4) using an OC-725C voltage clamp (Warner, Hamden, CT). […]

[2] = target: T1, KCNQ3* (KCNQ3[Ala315Thr]) (Homo sapiens, UniProt O43525, A315T); experiment: Two-electrode voltage clamp of homomeric KCNQ3* channels in Xenopus oocytes; assay type: cell-based
T1 sequence (O43525 1-872 A315T): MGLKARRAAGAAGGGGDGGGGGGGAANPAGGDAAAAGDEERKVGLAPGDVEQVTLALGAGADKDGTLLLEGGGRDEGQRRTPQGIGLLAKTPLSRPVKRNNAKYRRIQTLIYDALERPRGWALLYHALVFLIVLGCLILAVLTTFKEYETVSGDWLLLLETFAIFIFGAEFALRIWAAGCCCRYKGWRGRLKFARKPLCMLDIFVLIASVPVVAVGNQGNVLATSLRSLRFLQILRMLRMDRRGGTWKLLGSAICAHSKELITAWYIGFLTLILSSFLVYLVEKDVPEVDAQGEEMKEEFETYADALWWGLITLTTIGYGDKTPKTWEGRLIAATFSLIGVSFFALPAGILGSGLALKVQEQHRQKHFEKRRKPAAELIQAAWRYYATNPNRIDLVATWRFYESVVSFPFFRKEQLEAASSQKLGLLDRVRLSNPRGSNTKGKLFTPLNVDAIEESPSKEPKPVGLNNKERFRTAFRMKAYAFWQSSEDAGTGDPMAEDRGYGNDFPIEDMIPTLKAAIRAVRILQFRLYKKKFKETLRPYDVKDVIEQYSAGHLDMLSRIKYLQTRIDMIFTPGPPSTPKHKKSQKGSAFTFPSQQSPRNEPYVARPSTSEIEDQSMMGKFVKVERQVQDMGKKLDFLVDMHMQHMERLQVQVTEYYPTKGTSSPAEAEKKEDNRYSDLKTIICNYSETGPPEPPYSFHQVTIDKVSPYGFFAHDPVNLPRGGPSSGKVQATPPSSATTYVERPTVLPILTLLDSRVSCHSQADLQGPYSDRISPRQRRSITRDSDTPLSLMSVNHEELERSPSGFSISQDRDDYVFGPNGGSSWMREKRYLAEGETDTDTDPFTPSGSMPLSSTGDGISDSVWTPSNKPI
Description: as §1
Voltage-clamped potassium currents were recorded in standard Ringers solution (in mM): 116 NaCl, 2 KCl, 1 MgCl2, 0.5 CaCl2, 5 HEPES (pH 7.4) using an OC-725C voltage clamp (Warner, Hamden, CT). Glass microelectrodes were backfilled with 3 M KCl and had resistances of 0.1–1 MΩ. Data were filtered at 5 kHz and digitized at 10 kHz using a Digidata 1440A (Molecular Devices) controlled by the pClamp 10 software (Molecular Devices). Drugs were purchased from Toronto Research Chemicals (retigabine) or Tocris (ML-213, flupirtine, ICA-069673, ICA-110381), stored as 100 mM stocks in dimethylsulphoxide and diluted to working concentrations each experimental day.

[3] = target: KCNQ2 (Homo sapiens, UniProt O43526); experiment: Two-electrode voltage clamp of homomeric KCNQ2 channels in Xenopus oocytes; assay type: cell-based; conditions: 100 μM retigabine (Fig. 1)
Chain of KCNQ2 (O43526 whole entry, the tested form may be a part): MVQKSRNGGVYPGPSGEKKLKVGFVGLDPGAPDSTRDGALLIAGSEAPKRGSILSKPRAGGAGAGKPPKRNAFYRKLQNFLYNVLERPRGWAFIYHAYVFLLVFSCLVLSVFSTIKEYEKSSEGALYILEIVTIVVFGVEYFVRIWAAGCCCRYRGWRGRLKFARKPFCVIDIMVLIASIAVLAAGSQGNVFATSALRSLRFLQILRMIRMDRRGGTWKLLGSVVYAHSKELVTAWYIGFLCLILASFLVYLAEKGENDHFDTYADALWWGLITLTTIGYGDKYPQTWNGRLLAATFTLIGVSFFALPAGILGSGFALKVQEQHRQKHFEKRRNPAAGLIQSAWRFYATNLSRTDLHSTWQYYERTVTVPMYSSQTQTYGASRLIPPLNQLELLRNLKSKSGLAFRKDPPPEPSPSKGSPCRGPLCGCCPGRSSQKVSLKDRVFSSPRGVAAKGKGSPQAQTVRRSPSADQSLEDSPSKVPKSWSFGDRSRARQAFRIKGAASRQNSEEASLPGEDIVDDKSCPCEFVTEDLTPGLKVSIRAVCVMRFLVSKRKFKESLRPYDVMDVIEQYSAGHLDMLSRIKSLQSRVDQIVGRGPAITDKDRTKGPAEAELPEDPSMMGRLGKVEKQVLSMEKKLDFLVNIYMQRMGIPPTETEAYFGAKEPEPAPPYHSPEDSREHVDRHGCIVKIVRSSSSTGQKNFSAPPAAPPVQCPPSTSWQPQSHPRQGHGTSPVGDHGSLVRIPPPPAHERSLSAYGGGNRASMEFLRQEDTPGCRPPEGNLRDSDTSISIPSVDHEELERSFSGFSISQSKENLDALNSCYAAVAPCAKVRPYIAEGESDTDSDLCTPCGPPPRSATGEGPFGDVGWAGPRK
Description: (§3) KCNQ2 (human) and KCNQ3 (human) channel cDNAs were propagated and manipulated using the pTLN vector (gifts of Dr M. Taglialatela and Dr T. Jentsch). Introduction of point mutations was accomplished using PCR to combine two fragments each of which contained the mutation in an overlapping region of the sequence (‘two-step’ PCR method). To accomplish this, we used standard PCR approaches to amplify a 5′ fragment and a 3′ fragment (using a ‘flanking primer’ paired with a mutagenic primer). These fragments were then mixed along with the ‘flanking primer’ pair for a second round of PCR to combine the overlapping fragments. The resulting fragment was then subcloned into the appropriate parent vector using EcoRI and NotI restriction enzymes, and the sequence was verified by Sanger sequencing approaches (Genewiz). Sequences for the flanking primers and the ‘forward’ mutagenic primers are provided in Supplementary Table 1 for all mutations that were generated (‘reverse’ mutagenic primers are simply the reverse complement). […]
as §2

[4] = target: T2, KCNQ2/3 heteromers (Homo sapiens, UniProt O43525+O43526); experiment: Two-electrode voltage clamp of heteromeric KCNQ2/3 channels in Xenopus oocytes; assay type: cell-based; conditions: 1:1 injected mRNA
T2 construct: expressed in transfected cells; host or cells: Xenopus laevis oocytes co-injected with KCNQ2 and KCNQ3 mRNA (1:1)
T2 sequence (O43526 whole entry): as the sequence (O43526 whole entry, the tested form may be a part) above
T2 sequence (O43525 whole entry): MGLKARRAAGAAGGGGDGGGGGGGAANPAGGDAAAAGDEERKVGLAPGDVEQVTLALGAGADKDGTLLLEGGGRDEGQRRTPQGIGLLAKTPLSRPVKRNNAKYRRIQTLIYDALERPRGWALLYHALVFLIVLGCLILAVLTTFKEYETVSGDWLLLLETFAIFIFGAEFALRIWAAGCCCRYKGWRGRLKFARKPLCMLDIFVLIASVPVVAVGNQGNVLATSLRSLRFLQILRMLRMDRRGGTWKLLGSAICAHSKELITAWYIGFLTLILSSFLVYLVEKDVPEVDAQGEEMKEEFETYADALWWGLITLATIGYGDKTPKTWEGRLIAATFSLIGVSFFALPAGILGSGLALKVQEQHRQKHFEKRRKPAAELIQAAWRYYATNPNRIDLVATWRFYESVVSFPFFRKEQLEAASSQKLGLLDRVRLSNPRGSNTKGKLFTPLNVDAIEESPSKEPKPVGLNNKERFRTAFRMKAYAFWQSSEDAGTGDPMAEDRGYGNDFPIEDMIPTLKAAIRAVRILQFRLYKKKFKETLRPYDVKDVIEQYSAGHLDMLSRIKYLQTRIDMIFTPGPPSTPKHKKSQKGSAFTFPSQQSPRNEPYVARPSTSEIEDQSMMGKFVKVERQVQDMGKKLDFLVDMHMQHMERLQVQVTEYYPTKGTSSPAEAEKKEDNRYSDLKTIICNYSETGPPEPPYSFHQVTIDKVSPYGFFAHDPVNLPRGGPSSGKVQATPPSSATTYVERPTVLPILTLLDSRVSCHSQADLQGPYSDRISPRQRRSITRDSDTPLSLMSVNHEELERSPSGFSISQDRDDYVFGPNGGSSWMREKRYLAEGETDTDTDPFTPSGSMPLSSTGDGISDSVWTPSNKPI
Description: as §3, §2

[5] = tested on: KCNQ3*[Trp265Ind]; experiment: Two-electrode voltage clamp of Ind-rescued KCNQ3*[Trp265TAG] channels (nonsense suppression); assay type: cell-based, human; conditions: Ind at position 265; up to 100 μM retigabine
Description: as §3, §2

[6] = target: T3, KCNQ3*[Trp265TAG] rescued with Trp (Homo sapiens, UniProt O43525, A315T); experiment: Two-electrode voltage clamp of Trp-rescued KCNQ3*[Trp265TAG] channels (nonsense suppression); assay type: cell-based; conditions: 1 μM retigabine
T3 construct: expressed in transfected cells; host or cells: Xenopus laevis oocytes co-injected with KCNQ3*[Trp265TAG] cRNA and Trp-acylated suppressor tRNA
T3 sequence (O43525 1-872 A315T): T1 sequence (O43525 1-872 A315T)
Description: as §3, §2

[7] = target: T4, KCNQ3*[Asn220Cys] (Homo sapiens, UniProt O43525, A315T/N220C); experiment: Two-electrode voltage clamp of KCNQ3*[Asn220Cys] channels in Xenopus oocytes; assay type: cell-based; conditions: 1 μM retigabine, Asn220Cys mutant
T4 sequence (O43525 1-872 N220C/A315T): T1 sequence (O43525 1-872 A315T) with N220C
Description: as §3, §2

[8] = tested on: KCNQ3* mutants at Thr271, Leu272, Leu314 and Leu338; experiment: Two-electrode voltage clamp of KCNQ3* mutants at Thr271, Leu272, Leu314, Leu338; assay type: cell-based, human; conditions: functional mutants, up to 300 μM retigabine
Description: as §3, §2

[9] = tested on: KCNQ1; conditions: KCNQ1 lacks the S5 Trp; cited from earlier work

SMILES: O=C(Nc1cnc(Cl)nc1)c1ccc(F)c(F)c1 [ICA-069673]
- drug potency relative to Trp-rescued channels [1]: not as pronounced

SMILES: O=C(Nc1ccc(Cl)nc1)c1ccc(Cl)cc1 [ICA-110381]
- drug potency relative to Trp-rescued channels [1]: not as pronounced
- activation relative to Trp channels ([1]; F3-Trp-substituted channels): considerably more activation

SMILES: Cc1cc(C)c(NC(=O)C2CC3CCC2C3)c(C)c1 (stereo not shown) [ML-213]
- EC50 ([2]; KCNQ3* channels, n=5, ± s.e., read-out: EC50 for shift of activation V1/2): 3.6 ± 0.2 µM

SMILES: CCOC(=O)Nc1ccc(NCc2ccc(F)cc2)cc1N [retigabine]
- EC50 [2]: 11.6 ± 0.4 µM
- increase in peak current ([2]; KCNQ3* channels, rarely greater than): ≤ 15%
- hyperpolarizing shift of the V1/2 of activation ([2]; homomeric KCNQ3*, Xenopus oocytes, 100 μM retigabine (Fig. 1)): 40–60 mV
- stabilization of channel opening, ΔG=Δ(zFV1/2) ([2]; saturating retigabine, calculated from shift of conductance–voltage relationship): ~6 kcal/mol
- hyperpolarizing shift of the V1/2 of activation [3]: 40–60 mV
- retigabine-mediated gating shift [4]: ~−40 mV
- activation of channels (gating shift, activation kinetics) [5]: entirely abolishes retigabine activation
- shift in the voltage dependence of activation ([1]; 1 μM retigabine, F3-Trp at Trp265): much larger response
- shift in the voltage dependence of activation [6]: very little shift
- gating shift / sensitization to retigabine [7]: unable to generate a marked gating shift
- retigabine-mediated gating shift [8]: retained a large retigabine-mediated gating shift
- hyperpolarizing shift of V1/2 of activation [9]: absent
